Values belong to the compound of their own block, whether it stands above or below them.
Legend:
A549 cells = test: in vitro antiproliferation assay, A549 (lung); assay type: cell-based
Method: (§1) The IC50 values of various compounds against a various different tumor cell lines were determined using standard in vitro antiproliferation assays. The tumor cell lines tested were as follows: A549 (lung); H1299 (lung), ACHN (kidney/p53 wt), CAKI (renal cell carcinoma), NCI-H460 (lung); HCT116 (colon/p53w0; HELA (cervix/p53 wt), HUH7 (liver/p53 wt), HUVEC (primary endothelial), LNCAP (prostate), HT-29 (colon); MCF-7 (breast); MCF-7 (breast/ER positive), MDA MB435S (breast); MDA MB231 (breast/ER negative), DU145 (prostate); BxPC-3 (pancreatic); SKOV-3 (ovarian); HepG2 (hepatic), NDHF primary normal human dermal fibroblast), SKMEL28 (breast/p53mut), SKMEL5 (breast/p53 wt), U20S (bone) and PC3 (prostate). […] A blank indicates the specified compound was not tested against the specified cell line.

H1299 cells = test: in vitro antiproliferation assay, H1299 (lung); assay type: cell-based
Method: as §1

[1] = A549 (lung) cells, antiproliferation
[2] = H1299 (lung) cells, antiproliferation
[3] = Homo sapiens, A549 (lung) cells
[4] = Homo sapiens, NCI-H1299, H1299 (lung) cells
[5] = IC50 class against A549 (lung) tumor cells
[6] = IC50 class against H1299 (lung) tumor cells
[7] = Table 5, in vitro antiproliferation, A549 (lung) cells
[8] = Table 5, in vitro antiproliferation, H1299 (lung) cells
[9] = in vitro antiproliferation, A549 (lung) cells, Table 4, compounds with no designated stereochemistry tested as racemate
[10] = in vitro antiproliferation, H1299 (lung) cells, Table 4, compounds with no designated stereochemistry tested as racemate
[11] = A549 (lung) cells, in vitro antiproliferation
[12] = H1299 (lung) cells, in vitro antiproliferation

- IC50 (A549 cells; [3]): ≤ 20 µM
- IC50 (H1299 cells; [4]): ≤ 20 µM
SMILES: CNc1ncc(F)c(Nc2cc(Cl)c(OC)c(Cl)c2)n1 [compound 1160]

- IC50 (A549 cells; [1]): ≤ 20 µM
- IC50 (H1299 cells; [2]): ≤ 20 µM
SMILES: Oc1cccc(Nc2nc(Nc3cccc(-c4ncon4)c3)ncc2F)c1 [compound 890]

- IC50 (A549 cells; [7]): ≤ 20 µM
- IC50 (H1299 cells; [8]): ≤ 20 µM
SMILES: Cc1cc(C)cc(Nc2ncc(F)c(Nc3ccc4c(c3)OC(F)(F)C(F)(F)O4)n2)c1 [compound 537]

- IC50 (A549 cells; A549 (lung) cells): ≤ 20 µM
- IC50 (H1299 cells; H1299 (lung) cells): ≤ 20 µM
SMILES: CCCCn1ncc2ccc(Nc3ncc(F)c(Nc4ccc(OC)c(Cl)c4)n3)cc21 [compound 1086]

- IC50 (A549 cells; [1]): > 20 µM
- IC50 (H1299 cells; [2]): > 20 µM
SMILES: CCOC(=O)COc1cccc(Nc2ncc(F)c(Nc3cc(Cl)c(O)c(Cl)c3)n2)c1 [compound 999]

- IC50 (A549 cells; [1]): ≤ 20 µM
- IC50 (H1299 cells; [2]): ≤ 20 µM
SMILES: Cc1cc(C)cc(Nc2nc(Nc3cc(CO)cc(CO)c3)ncc2F)c1 [compound 897]

- IC50 (A549 cells; [9]): ≤ 20 µM
- IC50 (H1299 cells; [10]): ≤ 20 µM
SMILES: O=C1Nc2cc(Nc3nc(Nc4cccc(-c5cnco5)c4)ncc3F)ccc2OC1CCO (racemic) [compound 238]

- IC50 (A549 cells; [7]): ≤ 20 µM
- IC50 (H1299 cells; [8]): ≤ 20 µM
SMILES: Oc1c(Cl)cc(Nc2ncc(F)c(Nc3ccc4c(c3)OC(F)(F)O4)n2)cc1Cl [compound 563]

- IC50 (A549 cells; [11]): > 20 µM
- IC50 (H1299 cells; [12]): > 20 µM
SMILES: COc1ccc(Nc2nc(Nc3cc(C)c(OC)c(Cl)c3)ncc2F)cc1Cl [compound 802]

- IC50 (A549 cells; [11]): ≤ 20 µM
- IC50 (H1299 cells; [12]): ≤ 20 µM
SMILES: Oc1c(Cl)cc(Nc2ncc(F)c(Nc3ccc(OC(F)(F)F)c(Cl)c3)n2)cc1Cl [compound 829]

- IC50 (A549 cells; [11]): ≤ 20 µM
- IC50 (H1299 cells; [12]): > 20 µM
SMILES: CNC(=O)COc1cc(O)cc(Nc2ncc(F)c(Nc3cccc(O)c3)n2)c1 [compound 797]

- IC50 (A549 cells; [9]): ≤ 20 µM
- IC50 (H1299 cells; [10]): ≤ 20 µM
SMILES: COc1ccc(Nc2ncc(F)c(N(C)c3ccc4c(c3)N(C)C(=O)C(C)(C)O4)n2)cc1Cl [compound 325]

- IC50 (A549 cells; [9]): > 20 µM
- IC50 (H1299 cells; [10]): > 20 µM
SMILES: COc1cc(Nc2ncc(F)c(Nc3ccc4c(c3)NC(=O)C(C)(C)S4(=O)=O)n2)cc(OC)c1 [compound 263]

- IC50 (A549 cells; [11]): ≤ 20 µM
- IC50 (H1299 cells; [12]): ≤ 20 µM
SMILES: COc1cc(Nc2nc(Nc3cc(C)c(Cl)c(C)c3)ncc2F)cc(C(F)(F)F)c1 [compound 825]

- IC50 (A549 cells; [9]): ≤ 20 µM
- IC50 (H1299 cells; [10]): ≤ 20 µM
SMILES: COc1cc(Cl)cc(Nc2ncc(F)c(Nc3ccc4c(c3)NC(=O)C(C)(C)O4)n2)c1 [compound 321]

- IC50 (A549 cells; A549 (lung) cells): ≤ 20 µM
- IC50 (H1299 cells; H1299 (lung) cells): > 20 µM
SMILES: COc1cccc(Nc2ncc(F)c(Nc3ccc4c(c3)NC(=O)C(C)(C)O4)n2)c1C [compound 1065]

- IC50 (A549 cells; [5]): ≤ 20 µM
- IC50 (H1299 cells; [6]): ≤ 20 µM
SMILES: Fc1cnc(Nc2cccc(-c3ncco3)c2)nc1Nc1ccc2c(c1)NCCO2 [compound 589]

- IC50 (A549 cells; [1]): ≤ 20 µM
- IC50 (H1299 cells; [2]): ≤ 20 µM
SMILES: CNS(=O)(=O)c1ccc(Nc2nc(Nc3cc(OC)cc(OC)c3)ncc2F)cc1OC [compound 884]

The next lines start with the compound.

SMILES: Cc1cc(Nc2ncc(F)c(Nc3ccc(N4CCN(C)CC4)c(C)c3)n2)ccc1N1CCN(C)CC1 [compound 894]
- IC50 (A549 cells; [1]): ≤ 20 µM
- IC50 (H1299 cells; [2]): ≤ 20 µM

SMILES: O=C1Nc2ccc(Nc3nc(Nc4cccc(-c5ncco5)c4)ncc3F)cc2OC1CCO (centres unmarked) [compound 1145]
- IC50 (A549 cells; [3]): ≤ 20 µM
- IC50 (H1299 cells; [4]): ≤ 20 µM

SMILES: CCOC(=O)N1CCN(c2cccc(Nc3ncc(F)c(N(C)C4CCC4)n3)c2)CC1 [compound 130]
- IC50 (A549 cells; [5]): ≤ 20 µM
- IC50 (H1299 cells; [6]): ≤ 20 µM

SMILES: CN1CCN(c2ccc(Nc3ncc(F)c(NC4CC(C)(C)N(C)C(C)(C)C4)n3)cc2C(F)(F)F)CC1 [compound 182]
- IC50 (A549 cells; [5]): ≤ 20 µM
- IC50 (H1299 cells; [6]): ≤ 20 µM

SMILES: Fc1cnc(Nc2cccc(N3CCOCC3)c2)nc1Nc1cccc(Nc2ncc[nH]2)c1 [compound 1054]
- IC50 (A549 cells; Homo sapiens, IC50 class against A549 (lung) tumor cells): ≤ 20 µM
- IC50 (H1299 cells; Homo sapiens, NCI-H1299, IC50 class against H1299 (lung) tumor cells): ≤ 20 µM

SMILES: CC1(C)COc2ccc(Nc3nc(Nc4cccc(-c5cnco5)c4)ncc3F)cc2N1 [compound 592]
- IC50 (A549 cells; [5]): > 20 µM
- IC50 (H1299 cells; [6]): > 20 µM

SMILES: Cc1cc(C)cc(Nc2ncc(F)c(N(C)c3cc(C)c(Cl)c(C)c3)n2)c1 [compound 912]
- IC50 (A549 cells; [1]): > 20 µM
- IC50 (H1299 cells; [2]): > 20 µM

SMILES: CC(C)Nc1ncc(F)c(N(C)c2ccc3c(c2)OCCO3)n1 [compound 1041]
- IC50 (A549 cells; [5]): ≤ 20 µM
- IC50 (H1299 cells; [6]): ≤ 20 µM

SMILES: CCOC(=O)N1CCC(Nc2nc(Nc3ccc(N4CCN(C)CC4)c(C(F)(F)F)c3)ncc2F)CC1 [compound 189]
- IC50 (A549 cells; [5]): ≤ 20 µM
- IC50 (H1299 cells; [6]): ≤ 20 µM

SMILES: CC1(C)Oc2ccc(Nc3nc(Nc4ccc5c(cnn5C(C)(C)CC5CCC5)c4)ncc3F)cc2NC1=O [compound 1100]
- IC50 (A549 cells; A549 (lung) cells): ≤ 20 µM
- IC50 (H1299 cells; H1299 (lung) cells): ≤ 20 µM

SMILES: CN1CCN(c2ccc(Nc3ncc(F)c(NC4CCCCC4)n3)cc2Cl)CC1 [compound 153]
- IC50 (A549 cells; [5]): ≤ 20 µM
- IC50 (H1299 cells; [6]): ≤ 20 µM

SMILES: COc1cc(Nc2ncc(F)c(N(C)c3ccc4c(c3)N(C)C(=O)C(C)(C)O4)n2)cc(OC)c1 [compound 326]
- IC50 (A549 cells; [9]): ≤ 20 µM
- IC50 (H1299 cells; [10]): ≤ 20 µM

SMILES: COC(=O)COc1cccc(Nc2ncc(F)c(Nc3ccc(N4CCOCC4)cc3)n2)c1 [compound 989]
- IC50 (A549 cells; [1]): ≤ 20 µM
- IC50 (H1299 cells; [2]): ≤ 20 µM

Source: patent publication US8809341B2, “2,4-pyrimidinediamine compounds and uses as anti-proliferative agents” (Rigel Pharmaceuticals, Inc., priority 2003, dated 2014)
